Measured values: PMC8773171, “Development of Small-Molecule STING Activators for Cancer Immunotherapy” (Biomedicines, 2021)

Target: T1, STING (Homo sapiens, UniProt Q86WV6)
T1 construct: gene STING1; human STING WT protein 6His-tagged (recombinant)
Experiment: HTRF ligand-competitive binding assay with recombinant human STING; supported by CETSA in THP-1 cells

T1 sequence (Q86WV6 whole entry): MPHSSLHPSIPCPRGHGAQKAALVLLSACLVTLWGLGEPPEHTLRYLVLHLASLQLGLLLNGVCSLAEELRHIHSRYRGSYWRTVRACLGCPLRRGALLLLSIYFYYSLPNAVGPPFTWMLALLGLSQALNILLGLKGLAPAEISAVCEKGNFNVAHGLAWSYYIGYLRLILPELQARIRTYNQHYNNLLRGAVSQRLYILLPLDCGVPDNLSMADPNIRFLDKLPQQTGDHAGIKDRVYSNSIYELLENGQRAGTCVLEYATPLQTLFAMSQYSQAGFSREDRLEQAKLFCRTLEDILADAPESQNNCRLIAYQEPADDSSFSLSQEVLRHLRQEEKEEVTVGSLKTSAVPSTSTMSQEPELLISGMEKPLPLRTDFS

## Nc1ccc(C(=O)N2CCc3cc(S(=O)(=O)N4C[C@H](c5ccccc5)NC4=O)ccc32)cc1 [DW2282]
  STING competitive binding potency: > 10 µM
